Assay results reported in patent US11479587B2, “Cationic intrinsically disordered antimicrobial peptides” (priority 2016, dated 2022).
Where “and” joins values, the source holds several entries; their conditions need not be identical. Equal values may be shown once. No end group written: not given here.

Assays:
P. aeruginosa ATCC 10145 = assay: CFU-assay, P. aeruginosa-cidal activity; type: cell-based, Pseudomonas aeruginosa
[1] = system: Candida albicans ATCC 24433; assay: CFU-assay, Candida albicans-cidal activity; type: cell-based
Protocol: Thus, within the present invention, the antimicrobial activity is generally measured in nutrient deficient 10 mM sodium phosphate buffer pH 5.5, containing 0.25% glucose, using the CFU-assay according to Steinberg and Lehrer, 1997 (supra), unless otherwise indicated. The CFU-assay allows determination of the minimal bactericidal concentration (MBC, e.g., MBC90 and MBC100; i.e. the concentration of compound required to achieve a specified reduction in bacterial cell number (microbial death or killing)). […]
HR 1-17 affects C. albicans ATCC 24433 with highest activity at pH 5.5 in the absence of TSB in the medium (see Tables 12, 24). […] Furthermore, the substitution of any of the Arg residues by Gly leads to a dramatic reduction or loss of candidacidal activity (see Table 24).

S. aureus ATCC 6538 = assay: CFU-assay, S. aureus-cidal activity; type: cell-based, Staphylococcus aureus; conditions: pH 5.5, 0.25% glucose
Protocol: Thus, within the present invention, the antimicrobial activity is generally measured in nutrient deficient 10 mM sodium phosphate buffer pH 5.5, containing 0.25% glucose, using the CFU-assay according to Steinberg and Lehrer, 1997 (supra), unless otherwise indicated. The CFU-assay allows determination of the minimal bactericidal concentration (MBC, e.g., MBC90 and MBC100; i.e. the concentration of compound required to achieve a specified reduction in bacterial cell number (microbial death or killing)).
Various peptides corresponding to repeat domains of hornerin (HR 1-11: HRNR 2606-2628; HR 1-17: HRNR 2656-2684 and HR 1-18: HRNR 2656-2677) were tested for P. aeruginosa ATCC 10145-cidal activity in 10 mM Na-phosphate buffer pH 5.5, containing 0.25% glucose by counting the numbers of colonies of surviving bacteria at serial, twofold dilutions from 300 μg/ml down to 19 ng/ml of each peptide (CFU-assay; Steinberg and Lehrer, 1997, Methods Mol. Biol. 78, 169-186).
Staphylococcus aureus is a major skin pathogen, which causes skin infections, in particular in atopic dermatitis. The sensitivity of S. aureus ATCC 6538 towards several CIDAMPs was assessed using the CFU-assay as above (see Example 1). HR 1-18, which lacks S. aureus.-bactericidal activity, is converted in a S. aureus-cidal peptide, when all His are replaced by Arg (HR 1-18 4H-4R; see Table 13 and FIG. 9). […] HR 1-18 4H-4R is rich in Ser and Arg and contains a single Leu residue. When this single Leu was replaced by Gly in S. aureus-cidal HR 1-18 4H-4R (forming HR 1-18 4H-4R/L-G), S. aureus-cidal activity was abolished at both pH 7.0 and pH 5.5 (see Table 13 and FIG. 9).

C. albicans ATCC 928 = conditions: standard conditions at pH 7.4; activity at concentration <32 pg/ml
[2] = system: methicillin-resistant S. aureus strain (ATCC 43300); type: cell-based, Staphylococcus aureus; conditions: ATCC 43300, 18 h
Protocol: Furthermore, sensitivity of a methicillin-resistant S. aureus strain (ATCC 43300) was investigated for palmitoylated CIDAMPs in a microtiter plate screening model, with incubation in Mueller-Hinton medium at 37° C. for 18 h using resazurin as a marker for cell viability.
A sample of each culture was then diluted 40-fold in fresh broth and incubated at 37° C. for 1.5-3 h. […] All the plates were covered and incubated at 37° C. for 18 h.
Inhibition of bacterial growth was determined using resazurin as a marker for cell viability. Resazurin was added to each well, at 0.001% final concentration, and plates incubated at 37° C. for 2 h. Fluorescence intensity was measured, using F (top read), ex 560/10 nm, em 590/10 nm, using a Tecan M1000 Pro monochromator plate reader.

Row | Sequence | MBC90 (P. aeruginosa ATCC 10145; pH 5.0, 0.25% glucose) [µg/mL] | MBC100 (P. aeruginosa ATCC 10145; pH 5.0, 0.25% glucose) [µg/mL] | MBC90 ([1]; pH 5.5, 1% TSB) [µg/mL] | MBC100 ([1]; pH 5.5, 1% TSB) [µg/mL] | MBC100 (P. aeruginosa ATCC 10145; pH 5.5, 0.25% glucose) | also measured
1 | GGHGSGLGHSSSHGQHGSGSGRSSSRGPY (Modified peptide derived from human hornerin (HR 1-17 R2657G)) | 0.0375 | 0.3 | >300 | >300 |  | 
2 | GRHGSGLGHSSSHGQHGSGSGGSSSRGPY (Modified peptide derived from human hornerin (HR 1-17 R2677G)) | 0.0375 | 0.15 | 300 | >300 |  | 
3 | GRHGSGLGHSSSHGQHGSGSGRSSSGGPY (Modified peptide derived from human hornerin (HR 1-17 R2681G)) | 0.0375 | 0.15 to 0.3 | 300 | >300 |  | 
4 | GRRGGGGGRGGGRGGRGGGGGR (Modified peptide derived from human hornerin (HR 1-18 GR)) | <0.019 | 0.075 |  |  | 0.075 μg/ml and 0.04 μM | MBC90 (P. aeruginosa ATCC 10145; pH 5.5, 0.25% glucose): <6 nM; MBC90 (S. aureus ATCC 6538): >300 µg/mL; MBC100 (S. aureus ATCC 6538): >300 µg/mL; Antifungal activity, C. albcans ATCC90028 (C. albicans ATCC 928): I (I-inactive); Antifungal activity, C. neoformans ATCC 208821 (C. neoformans; standard conditions at pH 7.4, activity at concentration <32 pg/ml): I (I-inactive)
5 | HAHSGHGQSTQRGSRTAGRRGSGH (Peptide derived from human filaggrin-2 (FLG-2 2082-2105)) [FLG-22082-2105] |  |  |  |  | 0.038 µg/mL | MBC90 (P. aeruginosa ATCC 10145; pH 5.5, 0.25% glucose): <0.075 µg/mL; reduction of candidacidal activity at pH 7.2 versus pH 5.5 (fold) ([1]; pH 7.2 vs pH 5.5): ~50 fold
6 | HGSRSGQSSRGERHGSSSGSSSH (Peptide derived from human hornerin (HR 1-11)) | 0.075 | 2.35 |  |  | 2.35 µg/mL | MBC90 (P. aeruginosa ATCC 10145; pH 5.5, 1% TSB): 2.35 µg/mL; MBC100 (P. aeruginosa ATCC 10145; pH 5.5, 1% TSB): >300 µg/mL; MBC90 ([1]; pH 5.5, 0.25% glucose): 9.38 µg/mL; MBC100 ([1]; pH 5.5, 0.25% glucose): 150 µg/mL
7 | SHHRHFRSHQCRR [LCE3C55 67] |  |  |  |  |  | MIC, S. aureus ATCC 43300 [2]: ≥32 µg/mL; MIC, C. neoformans ATCC 208821 (C. neoformans): ≥8 µg/mL
